Measurements published in patent publication US10899793B2, “Melanocortin ligands and methods of use thereof” (priority 2016, dated 2021).
Square brackets hold non-standard residues; d marks the D form. Peptide text beside a SMILES is read from it. Bip = N[C@@H](Cc1ccc(-c2ccccc2)cc1)C(=O)O; dPhe(4-I) = N[C@H](Cc1ccc(I)cc1)C(=O)O; 2Nal = N[C@@H](Cc1ccc2ccccc2c1)C(=O)O; d2Nal = N[C@H](Cc1ccc2ccccc2c1)C(=O)O; Bta = N[C@@H](Cc1csc2ccccc12)C(=O)O; Tic = O=C(O)[C@@H]1Cc2ccccc2CN1; Nle = CCCC[C@H](N)C(=O)O

What was measured:
[1] = target: T1, mMC4R (Mus musculus, UniProt P56450); experiment: AlphaScreen cAMP agonist assay at mMC4R; details: for activation at 100 µM: read-out: mMC4R Agonist, percent of the NDP-MSH maximal positive control
T1 sequence (P56450 whole entry): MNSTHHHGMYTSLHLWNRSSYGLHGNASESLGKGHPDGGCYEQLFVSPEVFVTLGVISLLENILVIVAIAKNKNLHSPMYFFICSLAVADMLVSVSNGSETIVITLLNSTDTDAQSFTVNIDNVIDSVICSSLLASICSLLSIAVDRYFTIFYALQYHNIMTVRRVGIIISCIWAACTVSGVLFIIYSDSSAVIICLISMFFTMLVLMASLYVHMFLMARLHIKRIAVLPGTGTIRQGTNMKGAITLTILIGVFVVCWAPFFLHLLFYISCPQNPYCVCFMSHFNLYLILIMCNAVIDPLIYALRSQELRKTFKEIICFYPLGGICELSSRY

[2] = target: mMC5R (Mus musculus, UniProt P41149); experiment: AlphaScreen cAMP agonist assay at mMC5R; details: for activation at 100 µM: read-out: percent of the NDP-MSH maximal positive control, Table 2
mMC5R, sequence (P41149 whole entry): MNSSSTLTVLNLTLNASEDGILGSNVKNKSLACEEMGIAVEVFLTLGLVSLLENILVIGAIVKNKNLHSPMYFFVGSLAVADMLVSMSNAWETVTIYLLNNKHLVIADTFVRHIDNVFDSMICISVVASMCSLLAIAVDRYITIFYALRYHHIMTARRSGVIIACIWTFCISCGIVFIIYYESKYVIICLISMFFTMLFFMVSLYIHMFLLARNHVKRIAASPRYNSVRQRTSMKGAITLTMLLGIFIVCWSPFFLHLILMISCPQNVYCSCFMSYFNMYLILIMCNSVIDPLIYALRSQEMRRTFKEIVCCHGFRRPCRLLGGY

[3] = target: mMC1R (Mus musculus, UniProt Q01727); experiment: AlphaScreen cAMP agonist assay at mMC1R; details: for mMC1R percent of the NDP-MSH maximal positive control: Table 2, @ 100 μM
mMC1R, sequence (Q01727 whole entry): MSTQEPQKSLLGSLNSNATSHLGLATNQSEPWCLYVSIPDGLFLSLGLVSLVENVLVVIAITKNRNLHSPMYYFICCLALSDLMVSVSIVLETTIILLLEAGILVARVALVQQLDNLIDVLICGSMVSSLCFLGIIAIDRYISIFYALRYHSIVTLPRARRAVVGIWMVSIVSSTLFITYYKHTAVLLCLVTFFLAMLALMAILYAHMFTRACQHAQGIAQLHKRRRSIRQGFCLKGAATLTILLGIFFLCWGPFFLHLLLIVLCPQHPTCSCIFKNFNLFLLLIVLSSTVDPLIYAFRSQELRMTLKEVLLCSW

[4] = target: T2, mMC3R (Mus musculus, UniProt P33033); experiment: AlphaScreen cAMP agonist assay at mMC3R; details: for mMC3R Agonist, percent of the NDP-MSH maximal positive control: Table 1, @ 100 μM
T2 sequence (P33033 whole entry): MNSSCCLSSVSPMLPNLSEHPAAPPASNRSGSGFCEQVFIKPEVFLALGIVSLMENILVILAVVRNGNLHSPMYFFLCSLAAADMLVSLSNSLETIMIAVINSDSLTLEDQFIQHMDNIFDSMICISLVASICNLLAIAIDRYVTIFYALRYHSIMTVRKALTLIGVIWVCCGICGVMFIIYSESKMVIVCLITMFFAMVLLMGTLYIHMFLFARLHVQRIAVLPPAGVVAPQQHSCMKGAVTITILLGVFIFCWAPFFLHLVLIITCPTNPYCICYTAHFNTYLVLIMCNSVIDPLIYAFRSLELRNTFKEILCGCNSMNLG

[5] = target: T1, mMC4R; details: for mMC4R Antagonist pA2 ± SEM: Table 1, Schild analysis, pA2 = -Log(Ki)
[6] = target: T2, mMC3R; details: Table 1; Schild analysis, pA2 = -Log(Ki); Full Agonist = full dose-response, No Activity = no shift in EC50

Compound | activation at 100 µM [1] | mMC1R percent of the NDP-MSH maximal positive control [3] | mMC3R Agonist, percent of the NDP-MSH maximal positive control [4] | mMC3R Antagonist pA2 ± SEM [6] | mMC4R Antagonist pA2 ± SEM [5] | activation at 100 µM [2] | further results
CCCC[C@H](NC(=O)[C@H](CO)NC(=O)[C@H](Cc1ccc(O)cc1)NC(=O)[C@H](CO)NC(C)=O)C(=O)N[C@@H](CCC(=O)O)C(=O)N[C@@H](Cc1c[nH]cn1)C(=O)N[C@@H](CCCNC(=N)N)C(=O)N[C@H](Cc1ccccc1)C(=O)N[C@@H](Cc1c[nH]c2ccccc12)C(=O)NCC(=O)N[C@@H](CCCCN)C(=O)N1CCC[C@H]1C(=O)N[C@H](C(N)=O)C(C)C [SKY2-125-3, Ac-Ser-Tyr-Ser-Nle-Glu-His-Arg-DPhe-Trp-Gly-Lys-Pro-Val-NH2] (Ac-SYS[Nle]EHR[dF]WGKPV-NH2) |  |  |  |  |  |  | EC50 [1]: 9500 nM; EC50 [2]: 1600 nM; EC50 [3]: 380 ± 70 nM; EC50 [4]: 1800 nM
CC(=O)N[C@@H](CCCNC(=N)N)C(=O)N[C@@H](CCCNC(=N)N)C(=O)N[C@H](Cc1ccc(I)cc1)C(=O)N[C@@H](Cc1ccc(-c2ccccc2)cc1)C(N)=O [SKY4-48-2, Ac-Arg-Arg-(pI)DPhe-Bip-NH2] | 32% | 44% @ 100 μM | 45% @ 100 μM |  |  |  | antagonist pA2 at the mMC4R [5]: 5.8
CC(=O)N[C@@H](Cc1c[nH]cn1)C(=O)N[C@@H](CCCNC(=N)N)C(=O)N[C@H](Cc1ccc(I)cc1)C(=O)N[C@@H](Cc1ccc(-c2ccccc2)cc1)C(N)=O [SKY4-48-3, Ac-His-Arg-(pI)DPhe-Bip-NH2] (Ac-HR[dPhe(4-I)][Bip]-NH2) | 43% |  | 53% @ 100 μM | No Activity | No Activity |  | 
CC(=O)N[C@@H](Cc1ccc(-c2ccccc2)cc1)C(=O)N[C@@H](CCCNC(=N)N)C(=O)N[C@H](Cc1ccc(I)cc1)C(=O)N[C@@H](Cc1ccc(-c2ccccc2)cc1)C(N)=O [SKY4-48-4, Ac-Bip-Arg-(pI)DPhe-Bip-NH2] (Ac-[Bip]R[dPhe(4-I)][Bip]-NH2) | 24% |  |  | No Activity | No Activity |  | 
CC(=O)N[C@@H](Cc1csc2ccccc12)C(=O)N[C@@H](CCCNC(=N)N)C(=O)N[C@H](Cc1ccc(I)cc1)C(=O)N[C@@H](Cc1ccc(-c2ccccc2)cc1)C(N)=O [SKY4-48-5, Ac-3Bal-Arg-(pI)DPhe-Bip-NH2] (Ac-[Bta]R[dPhe(4-I)][Bip]-NH2) | 35% |  | 51% @ 100 μM | No Activity | No Activity |  | 
CC(=O)N[C@@H](Cc1ccccc1)C(=O)N[C@@H](CCCNC(=N)N)C(=O)N[C@H](Cc1ccc(I)cc1)C(=O)N[C@@H](Cc1ccc(-c2ccccc2)cc1)C(N)=O [SKY4-48-7, Ac-Phe-Arg-(pI)DPhe-Bip-NH2] (Ac-FR[dPhe(4-I)][Bip]-NH2) |  | 67% @ 100 μM | 30% @ 100 μM | No Activity | No Activity |  | 
CC(=O)N1Cc2ccccc2C[C@H]1C(=O)N[C@@H](CCCNC(=N)N)C(=O)N[C@H](Cc1ccc(I)cc1)C(=O)N[C@@H](Cc1csc2ccccc12)C(N)=O [SKY4-48-14, Ac-Tic-Arg-(pI)DPhe-3Bal-NH2] (Ac-[Tic]R[dPhe(4-I)][Bta]-NH2) |  | 38% @ 100 μM |  | Full Agonist |  |  | 
CC(=O)N[C@H](Cc1ccc2ccccc2c1)C(=O)N[C@@H](CCCNC(=N)N)C(=O)N[C@H](Cc1ccc(I)cc1)C(=O)N[C@@H](Cc1csc2ccccc12)C(N)=O [SKY4-48-17, Ac-DNal(2′)-Arg-(pI)DPhe-3Bal-NH2] (Ac-[d2Nal]R[dPhe(4-I)][Bta]-NH2) | 45% |  |  | Full Agonist |  |  | 
CC(=O)N[C@@H](Cc1csc2ccccc12)C(=O)N[C@@H](CCCNC(=N)N)C(=O)N[C@H](Cc1ccc(I)cc1)C(=O)N1Cc2ccccc2C[C@H]1C(N)=O [SKY4-48-21, Ac-3Bal-Arg-(pI)DPhe-Tic-NH2] (Ac-[Bta]R[dPhe(4-I)][Tic]-NH2) | 37% |  |  | Full Agonist |  |  | 
CC(=O)N[C@@H](Cc1ccc2ccccc2c1)C(=O)N[C@@H](CCCNC(=N)N)C(=O)N[C@H](Cc1ccc(I)cc1)C(=O)N1Cc2ccccc2C[C@H]1C(N)=O [SKY4-48-24, Ac-Nal(2′)-Arg-(pI)DPhe-Tic-NH2] (Ac-[2Nal]R[dPhe(4-I)][Tic]-NH2) | 33% |  |  | Full Agonist |  |  | 
CC(=O)N[C@@H](Cc1c[nH]cn1)C(=O)N[C@@H](CCCNC(=N)N)C(=O)N[C@H](Cc1ccc(I)cc1)C(=O)N[C@@H](Cc1ccc2ccccc2c1)C(N)=O [SKY4-48-35, Ac-His-Arg-(pI)DPhe-Nal(2′)-NH2] (Ac-HR[dPhe(4-I)][2Nal]-NH2) | 35% |  | 57% @ 100 μM |  |  |  | 
CC(=O)N[C@@H](Cc1ccc(-c2ccccc2)cc1)C(=O)N[C@@H](CCCNC(=N)N)C(=O)N[C@H](Cc1ccc(I)cc1)C(=O)N[C@@H](Cc1ccc2ccccc2c1)C(N)=O [SKY4-48-36, Ac-Bip-Arg-(pI)DPhe-Nal(2′)-NH2] (Ac-[Bip]R[dPhe(4-I)][2Nal]-NH2) |  | 23% @ 100 μM |  | No Activity | No Activity | 21% | 
CC(=O)N1Cc2ccccc2C[C@H]1C(=O)N[C@@H](CCCNC(=N)N)C(=O)N[C@H](Cc1ccc(I)cc1)C(=O)N[C@@H](Cc1ccc2ccccc2c1)C(N)=O [SKY4-48-38, Ac-Tic-Arg-(pI)DPhe-Nal(2′)-NH2] (Ac-[Tic]R[dPhe(4-I)][2Nal]-NH2) |  | 66% @ 100 μM |  | No Activity |  | 48% | 
CC(=O)N[C@@H](Cc1c[nH]cn1)C(=O)N[C@@H](CCCNC(=N)N)C(=O)N[C@H](Cc1ccc(I)cc1)C(=O)N[C@H](Cc1ccc2ccccc2c1)C(N)=O [SKY4-48-43, Ac-His-Arg-(pI)DPhe-DNal(2′)-NH2] (Ac-HR[dPhe(4-I)][d2Nal]-NH2) | 50% |  |  | Full Agonist |  | 47% | 
CC(=O)N1Cc2ccccc2C[C@H]1C(=O)N[C@@H](CCCNC(=N)N)C(=O)N[C@H](Cc1ccc(I)cc1)C(=O)N[C@H](Cc1ccc2ccccc2c1)C(N)=O [SKY4-48-46, Ac-Tic-Arg-(pI)DPhe-DNal(2′)-NH2] (Ac-[Tic]R[dPhe(4-I)][d2Nal]-NH2) | 33% |  | 42% @ 100 μM | No Activity | No Activity | 74% | 
CC(=O)N[C@@H](Cc1ccc2ccccc2c1)C(=O)N[C@@H](CCCNC(=N)N)C(=O)N[C@H](Cc1ccc(I)cc1)C(=O)N[C@H](Cc1ccc2ccccc2c1)C(N)=O [SKY4-48-48, Ac-Nal(2′)-Arg-(pI)DPhe-DNal(2′)-NH2] (Ac-[2Nal]R[dPhe(4-I)][d2Nal]-NH2) |  | 53% @ 100 μM | 31% @ 100 μM | No Activity | No Activity | 40% | 
CC(=O)N[C@H](Cc1ccc2ccccc2c1)C(=O)N[C@@H](CCCNC(=N)N)C(=O)N[C@H](Cc1ccc(I)cc1)C(=O)N[C@H](Cc1ccc2ccccc2c1)C(N)=O [SKY4-48-49, Ac-DNal(2′)-Arg-(pI)DPhe-DNal(2′)-NH2] (Ac-[d2Nal]R[dPhe(4-I)][d2Nal]-NH2) | 37% |  | 40% @ 100 μM |  |  | 43% | 
CC(=O)N1Cc2ccccc2C[C@H]1C(=O)N[C@@H](CCCNC(=N)N)C(=O)N[C@H](Cc1ccc(I)cc1)C(=O)N[C@@H](Cc1ccc(-c2ccccc2)cc1)C(N)=O [SKY5-146-1, Ac-Tic-Arg-(pI)DPhe-Bip-NH2] (Ac-[Tic]R[dPhe(4-I)][Bip]-NH2) |  | 39% @ 100 μM |  | No Activity | No Activity |  | 
CC(=O)N[C@H](Cc1ccc2ccccc2c1)C(=O)N[C@@H](CCCNC(=N)N)C(=O)N[C@H](Cc1ccc(I)cc1)C(=O)N[C@@H](Cc1ccc(-c2ccccc2)cc1)C(N)=O [SKY5-146-2, Ac-DNal(2′)-Arg-(pI)DPhe-Bip-NH2] (Ac-[d2Nal]R[dPhe(4-I)][Bip]-NH2) | 42% |  | 30% @ 100 μM |  |  |  | antagonist pA2 at the mMC4R [5]: 6.6
CC(=O)N[C@H](Cc1ccc2ccccc2c1)C(=O)N[C@@H](CCCNC(=N)N)C(=O)N[C@H](Cc1ccc(I)cc1)C(=O)N[C@@H](Cc1ccc2ccccc2c1)C(N)=O [SKY5-146-5, Ac-DNal(2′)-Arg-(pI)DPhe-Nal(2′)-NH2] (Ac-[d2Nal]R[dPhe(4-I)][2Nal]-NH2) | 39% |  | 43% @ 100 μM |  |  | 40% | 
CC(=O)N1Cc2ccccc2C[C@H]1C(=O)N[C@@H](CCCNC(=N)N)C(=O)N[C@H](Cc1ccc(I)cc1)C(=O)N1Cc2ccccc2C[C@H]1C(N)=O [SKY6-24-1, Ac-Tic-Arg-(pI)DPhe-Tic-NH2] (Ac-[Tic]R[dPhe(4-I)][Tic]-NH2) | 36% |  |  | Full Agonist |  |  | 
Ac-SYSMEHRFWGKPV-NH2 [SKY2-125-5] |  |  |  |  |  |  | EC50 [1]: 44000 nM; EC50 [2]: 2600 nM; EC50 [3]: 3000 nM; EC50 [4]: 5800 nM; fold decreased potency at the mMC3R relative to α-MSH ([4]; Arg-Phe reverse analog vs parent): 45,000 fold
